This note sets out measurements from patent US7915259B2, “Diazabicyclononene derivatives and use thereof” (priority 2005, dated 2011).

Experiment [1] deals with T1, recombinant human renin (Homo sapiens, UniProt P00797).
T1 sequence (P00797 67-406): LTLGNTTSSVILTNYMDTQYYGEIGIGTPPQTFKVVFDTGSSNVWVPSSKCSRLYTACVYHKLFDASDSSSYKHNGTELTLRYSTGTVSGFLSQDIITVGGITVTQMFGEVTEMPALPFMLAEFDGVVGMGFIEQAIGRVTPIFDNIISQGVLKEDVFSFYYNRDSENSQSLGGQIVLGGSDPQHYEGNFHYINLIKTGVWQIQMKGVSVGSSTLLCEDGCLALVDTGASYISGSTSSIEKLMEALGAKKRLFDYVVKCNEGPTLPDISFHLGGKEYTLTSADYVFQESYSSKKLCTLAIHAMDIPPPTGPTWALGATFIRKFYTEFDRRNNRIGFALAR
Description: Primary renin inhibition assay: IC50 in buffer, 384 well MTP (Ang I EIA readout). It counts as biochemical. The procedure:
1. Enzyme Immuno Assay (EIA) to Estimate Ang I Accumulation and Renin Inhibition
1.1 Preparation of Ang I-BSA Conjugate
1.3 mg (1 μmol) of Ang I [1-10 (Bachem, H-1680)] and 17 mg (0.26 μmol) of BSA (Fluka, 05475) were dissolved in 4 mL of 0.1M phosphate buffer, pH 7.4, after which 2 mL of a 1:100 dilution of glutaraldehyde in H2O (Sigma G-5882) was added dropwise. The mixture was incubated overnight at 4° C., then dialyzed against 2 liters of 0.9% NaCl, twice for 4 h at rt, followed by dialysis against 2 liters of PBS 1× overnight at rt. The solution was then filtered with a Syringe filter, 0.45 μm (Nalgene, Cat. No. 194-2545). The conjugate can be stored in polypropylene tubes in 0.05% sodium azide at 4° C. for at least 12 months.
1.2 Preparation of BSA-Ang I Coated MTP […]
The renin assay was adapted from an assay described before (Fischli W. et al., Hypertension, 1991, 18:22-31) and consists of two steps: in the first step, recombinant human renin is incubated with its substrate (commercial human tetradecapeptide renin substrate) to create the product Angiotensin I (Ang I). In the second step, the accumulated Ang I is measured by an immunological assay (enzyme immuno assay, EIA). […]

Experiment [2] deals with double transgenic rats with human renin and human angiotensinogen. Description: Hemodynamic measurements (telemetry method) in hypertensive double transgenic rats. It counts as in vivo, rat. Conditions: female double transgenic rats. The procedure:
Hemodynamic Measurements (Telemetry Method)
Animals—Female double transgenic rats with human renin and human angiotensinogen were purchased from RCC Ltd, Füllingsdorf, Switzerland. All animals were maintained under identical conditions and had free access to normal pelleted rat chow and water. Rats were initially treated with enalapril (1 mg/kg/day) during 2 months. After approximately two weeks following cessation of enalapril treatment the double transgenic rats become hypertensive and reach mean arterial blood pressures in the range of 160-170 mmHg.
Transmitter implantation—The rats were anaesthetised with a mixture of 90 mg/kg Ketamin-HCl (Ketavet, Parke-Davis, Berlin FRG) and 10 mg/kg xylazin (Rompun, Bayer, Leverkusen, FRG) i.p. The pressure transmitter was implanted under aseptic conditions into the peritoneal cavity with the sensing catheter placed in the descending aorta below the renal arteries pointing upstream. The transmitter was sutured to the abdominal musculature and the skin closed.
Telemetry-System—Telemetry units were obtained from Data Sciences (St. Paul, Minn.). […] The tip of the catheter was filled with a viscous gel that prevents blood reflux and was coated with an antithrombogenic film to inhibit thrombus formation. The implants (length=2.5 cm, diameter=1.2 cm) weighted 9 g and have a typical battery life of 6 months. A receiver platform (RPC-1, Data Sciences) connected the radio signal to digitized input that was sent to a dedicated personal computer (Compaq, deskpro). Arterial pressures were calibrated by using an input from an ambient-pressure reference (APR-1, Data Sciences). Systolic, mean and diastolic blood pressure was expressed in millimeter of mercury (mmHg).
[…] The effect of the test substance is expressed as maximal decrease of mean arterial pressure (MAP) in the treated group versus the control group.

Consider `Cc1cc(Cl)c(OCCOc2ccc(C3=C(C(=O)N(Cc4cccc(C)c4C)C4CC4)[C@H]4CNC[C@@H](C3)N4)cc2)c(Cl)c1` [Compound (I′), (1R,5S)-7-{4-[2-(2,6-dichloro-4-methylphenoxy)ethoxy]-phenyl}-3,9-diazabicyclo[3.3.1]non-6-ene-6-carboxylic acid cyclopropyl-(2,3-dimethylbenzyl)amide], for which the IC50 in experiment [1] was found to be 0.3 nM. The “activity in the animal model” value in experiment [2] (oral) was “active”. Also, the figures for the “blood pressure decrease (maximal decrease of mean arterial pressure vs control group)” value in experiment [2] (single oral dose of 3 mg/kg) and in experiment [2] (single oral dose of 10 mg/kg) were 17 mmHg and 30 mmHg, respectively.
